The source of these data is US20240408106A1, “BI-FUNCTIONAL COMPOUNDS AND METHODS FOR TARGETED UBIQUITINATION OF ANDROGEN RECEPTOR” (MONTELINO THERAPEUTICS, INC., priority 2021, published 2024).

For the assay, the system named is human prostate cancer cell line, 22Rv1-Enz^R. The experiment in a line: 22Rv1-Enz^R cell proliferation assay. In kind it is cell-based. The conditions noted are these: half maximal growth inhibition constant, 22Rv1-Enz^R cells, 6-day culture with cell media changed every 24 hours, read-out: 22Rv1-Enz^R proliferation assay GIC50. Here is the method:
The human prostate cancer cell line, 22Rv1 has been reported to express a high level of AR-V7. According to one procedure, 22Rv1 is seeded at 50,000 cells/well on a 24-well plate in quadruplicate and treated with test compounds in concentrations ranging up to 20 μM for four days. Standard culture media is RPMI-1640 supplemented with 10% fetal bovine serum. The test compound initially is dissolved in DMSO at 50 mM. This stock solution is then diluted as needed for the indicated concentrations. At the end of the four-day period, cells are harvested using 1% trypsin and counted using an automated cell counter.
Selected compounds may be tested in the human prostate cancer cell line, 22Rv1-Enz^R, as described in Geun Taek Lee et al., Molecular Cancer Therapeutics, 20:490-9 (2021). These procedures are similar to that described in Experimental Example 1, above, except that the assay conditions are a 6-day culture with cell media changed every 24 hours.
In the following Table (half maximal growth inhibition constant, GIC50): (+)-GIC50<200 μM; (++)-GIC50<100 μM; (+++)-GIC50<10 μM.
For `Cc1ncsc1-c1ccc([C@H](C)NC(=O)[C@@H]2C[C@@H](O)CN2C(=O)[C@@H](NC(=O)CN2CCN(C(=O)COc3c(-c4csc(N5CCOCC5)n4)ccc(F)c3F)CC2)C(C)(C)C)cc1` [Example 1, (2S,4R)-1-((S)-2-(2-(4-(2-(2,3-difluoro-6-(2-morpholinothiazol-4-yl)phenoxy)acetyl)piperazin-1-yl)acetamido)-3,3-dimethylbutanoyl)-4-hydroxy-N-((S)-1-(4-(4-methylthiazol-5-yl)phenyl)ethyl)pyrrolidine-2-carboxamide], the IC50 is less than 10 µM.

With `Cc1ncsc1-c1ccc([C@H](C)NC(=O)[C@@H]2C[C@@H](O)CN2C(=O)[C@@H](NC(=O)CCN2CCN(C(=O)COc3c(-c4csc(N5CCOCC5)n4)ccc(F)c3F)CC2)C(C)(C)C)cc1` [Example 2, (2S,4R)-1-((S)-2-(3-(4-(2-(2,3-difluoro-6-(2-morpholinothiazol-4-yl)phenoxy)acetyl)piperazin-1-yl)propanamido)-3,3-dimethylbutanoyl)-4-hydroxy-N-((S)-1-(4-(4-methylthiazol-5-yl)phenyl)ethyl) pyrrolidine-2-carboxamide], the IC50 is less than 100 µM. In the case of `Cc1ncsc1-c1ccc([C@H](C)NC(=O)[C@@H]2C[C@@H](O)CN2C(=O)[C@@H](NC(=O)CCC(=O)N2CCCC(NC(=O)COc3c(-c4csc(N5CCOCC5)n4)ccc(F)c3F)C2)C(C)(C)C)cc1` (stereo partly drawn) [Example 3, (2S,4R)-1-((2S)-2-(4-(3-(2-(2,3-difluoro-6-(2-morpholinothiazol-4-yl)phenoxy)acetamido)piperidin-1-yl)-4-oxobutanamido)-3,3-dimethylbutanoyl)-4-hydroxy-N-((S)-1-(4-(4-methylthiazol-5-yl)phenyl)ethyl)pyrrolidine-2-carboxamide] it was less than 10 µM; in that of `Cc1ncsc1-c1ccc([C@H](C)NC(=O)[C@@H]2C[C@@H](O)CN2C(=O)[C@@H](NC(=O)CCCCn2nncc2CCOc2c(-c3csc(N4CCOCC4)n3)ccc(F)c2F)C(C)(C)C)cc1` [Example 4, (2S,4R)-1-((S)-2-(5-(5-(2-(2,3-difluoro-6-(2-morpholinothiazol-4-yl)phenoxy)ethyl)-1H-1,2,3-triazol-1-yl)pentanamido)-3,3-dimethylbutanoyl)-4-hydroxy-N-((S)-1-(4-(4-methylthiazol-5-yl)phenyl)ethyl)pyrrolidine-2-carboxamide], less than 10 µM; in that of `Cc1ncsc1-c1ccc([C@H](C)NC(=O)[C@@H]2C[C@@H](O)CN2C(=O)[C@@H](NC(=O)CCC(=O)N[C@H]2C[C@H](Oc3c(-c4csc(N5CCOCC5)n4)ccc(F)c3F)C2)C(C)(C)C)cc1` [Example 5, N1-((1r,3S)-3-(2,3-difluoro-6-(2-morpholinothiazol-4-yl)phenoxy)cyclobutyl)-N4-((S)-1-((2S,4R)-4-hydroxy-2-(((S)-1-(4-(4-methylthiazol-5-yl)phenyl)ethyl)carbamoyl)pyrrolidin-1-yl)-3,3-dimethyl-1-oxobutan-2-yl)succinamide], less than 100 µM. To `COc1cc(C(=O)NCC2CCN(C(=O)COc3c(-c4csc(N5CCOCC5)n4)ccc(F)c3F)CC2)ccc1NC(=O)[C@@H]1N[C@@H](CC(C)(C)C)[C@](C#N)(c2ccc(Cl)cc2F)[C@H]1c1cccc(Cl)c1F` [Example 7, (2R,3S,4R,5S)-3-(3-chloro-2-fluorophenyl)-4-(4-chloro-2-fluorophenyl)-4-cyano-N-(4-(((1-(2-(2,3-difluoro-6-(2-morpholinothiazol-4-yl)phenoxy)acetyl)piperidin-4-yl)methyl)carbamoyl)-2-methoxyphenyl)-5-neopentylpyrrolidine-2-carboxamide] belongs less than 200 µM; to `COc1cc(C(=O)NCCN2CCN(C(=O)COc3c(-c4csc(N5CCOCC5)n4)ccc(F)c3F)CC2)ccc1NC(=O)[C@@H]1N[C@@H](CC(C)(C)C)[C@](C#N)(c2ccc(Cl)cc2F)[C@H]1c1cccc(Cl)c1F` [Example 8, (2R,3S,4R,5S)-3-(3-chloro-2-fluorophenyl)-4-(4-chloro-2-fluorophenyl)-4-cyano-N-(4-((2-(4-(2-(2,3-difluoro-6-(2-morpholinothiazol-4-yl)phenoxy)acetyl)piperazin-1-yl)ethyl)carbamoyl)-2-methoxyphenyl)-5-neopentylpyrrolidine-2-carboxamide], less than 100 µM. Consider `COc1cc(C(=O)N2CCC(NC(=O)COc3c(-c4csc(N5CCOCC5)n4)ccc(F)c3F)CC2)ccc1NC(=O)[C@@H]1N[C@@H](CC(C)(C)C)[C@](C#N)(c2ccc(Cl)cc2F)[C@H]1c1cccc(Cl)c1F` [Example 9, (2R,3S,4R,5S)-3-(3-chloro-2-fluorophenyl)-4-(4-chloro-2-fluorophenyl)-4-cyano-N-(4-(4-(2-(2,3-difluoro-6-(2-morpholinothiazol-4-yl)phenoxy)acetamido)piperidine-1-carbonyl)-2-methoxyphenyl)-5-neopentylpyrrolidine-2-carboxamide], for which the IC50 is less than 200 µM.

Turning to `COc1cc(C(=O)NCCOCCn2cc(CCOc3c(-c4csc(N5CCOCC5)n4)ccc(F)c3F)nn2)ccc1NC(=O)[C@@H]1N[C@@H](CC(C)(C)C)[C@](C#N)(c2ccc(Cl)cc2F)[C@H]1c1cccc(Cl)c1F` [Example 10, (2R,3S,4R,5S)-3-(3-chloro-2-fluorophenyl)-4-(4-chloro-2-fluorophenyl)-4-cyano-N-(4-((2-(2-(4-(2-(2,3-difluoro-6-(2-morpholinothiazol-4-yl)phenoxy)ethyl)-1H-1,2,3-triazol-1-yl)ethoxy)ethyl)carbamoyl)-2-methoxyphenyl)-5-neopentylpyrrolidine-2-carboxamide], the IC50 was less than 100 µM.
